Data published in patent US20240101552A1, “CARBONYL HETEROCYCLIC COMPOUND AND APPLICATION THEREOF” (SHANGHAI PHARMACEUTICALS HOLDING CO., LTD., priority 2020, published 2024).

Biological target: LANCL2 (Homo sapiens (Human), UniProt Q9NS86)
Test: SPR (BIACORE S200) kinetic determination of LANCL2-small molecule interactions
Assay type: binding
Conditions: for Kd: immobilized LANCL2, 1:1 binding model, pH 6.5, 25° C.; for Rmax (RU): maximum binding force
Procedure: 1.1 Reagent Materials • Ligand: LANCL2 • Running buffer: 20 mM MES, 150 mM NaCl, 0.05% P20, pH 6.5, 1% DMSO
Injection conditions for small molecule compounds: a flow rate of 30 μL/min, a binding time of 60 s, a dissociation time of 300 s.
Running buffer: 20 mM MES, 150 mM NaCl, 0.05% P20, pH 6.5, 1% DMSO.
Sample chamber temperature: 25° C.; analysis temperature: 25° C.
Kinetic determination of LANCL2-small molecule interactions was performed. The kinetic parameters of small molecules BT-11 and L-1 to 60 (analytes) binding to LANCL2 (ligand) were determined using BIACORE S200. Data were generated in triplicate in a dose-dependent manner (5-8 titration points) and analyzed to determine binding models (Langmuir, conformational shifts, etc.), real-time association and dissociation constants, and equilibrium dissociation constants. SPR technology allows the validation of specific LANCL2-phytochemical interactions as well as an increased insight into the gold standard of binding mechanisms and rates. Experiments were performed on carboxymethyl polydextrose (CM5) sensor chips by amine-coupled covalent attachment of LANCL2. Data were analyzed with BIACORE S200T200 evaluation software (version 1), so as to determine affinity binding constants (KD) using a 1:1 binding model.
An optical technique for detecting molecular interactions, SPR, was used to measure the binding affinity between LANCL2 and a ligand thereof (compound to be tested). Purified recombinant LANCL2 protein was immobilized on a BIACORE sensor chip and small molecules were injected onto the protein surface using an equipment of microfluidic system. The change in total mass on the chip surface, corresponding to a small binding to the protein, was measured. […] The equilibrium dissociation constant (Kd) was often used to describe the affinity between a ligand and a protein, such as affinity degree of a ligand binding to a specific protein. Ligand-protein affinity was affected by non-covalent intermolecular interactions between two molecules, such as hydrogen bonding, electrostatic interactions, hydrophobic bonds and van der Waals forces. The steady-state affinity (Kd) for each interaction could be measured by plotting equilibrium binding levels against compound concentrations.

Chain of LANCL2 (Q9NS86 whole entry, species assumed): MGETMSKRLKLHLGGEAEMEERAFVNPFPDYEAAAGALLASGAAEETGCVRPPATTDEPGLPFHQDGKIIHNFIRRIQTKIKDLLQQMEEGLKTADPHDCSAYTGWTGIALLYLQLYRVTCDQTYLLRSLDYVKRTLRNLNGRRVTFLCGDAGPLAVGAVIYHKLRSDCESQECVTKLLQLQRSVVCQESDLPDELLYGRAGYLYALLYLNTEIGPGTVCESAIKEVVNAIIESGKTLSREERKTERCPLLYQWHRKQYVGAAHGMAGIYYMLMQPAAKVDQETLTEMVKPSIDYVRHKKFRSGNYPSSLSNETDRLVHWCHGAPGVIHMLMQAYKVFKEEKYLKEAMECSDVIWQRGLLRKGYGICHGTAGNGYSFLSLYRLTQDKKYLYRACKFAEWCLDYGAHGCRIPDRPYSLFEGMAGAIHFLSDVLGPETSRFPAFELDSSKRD

SMILES | Kd | Rmax (RU) | binding activity compared with positive reference compound BT-11
CCCCOc1ccc(C(=O)NC2CCN(C(=O)c3cccc(-c4cn5ccccc5n4)c3)CC2)cc1 [Embodiment L-107, 4-Butoxy-N-(1-(3-(imidazo[1,2-a]pyridin-2-yl)benzoyl)piperidin-4-yl)benzamide] | 6.19 µM | 4.5 RU | –
O=C(NC1C2CN(C(=O)c3cccc(-c4nc5ccccc5s4)c3)CC21)c1cccc(-c2nc3ccccc3[nH]2)n1 [Embodiment L-77, 6-(1H-benzo[d]imidazol-2-yl)-N-(3-(3-(benzo[d]thiazol-2-yl)benzoyl)-3-azabicyclo[3.1.0]hexane-6-yl)picolinamide] | 1.9 µM | 7.3 RU | better binding activities than the positive reference compound BT-11
O=C(NC1CCN(C(=O)c2cccc(-c3nc4ccccc4[nH]3)n2)CC1)c1ccnc(Nc2ccccc2)n1 [Embodiment L-19] | 25.3 µM | 9.7 RU | –
O=C(c1ccnc(Nc2ccccc2)n1)N1CC2CN(C(=O)c3ccnc(Nc4ccccc4)n3)CC2C1 [Embodiment L-83] | 53.7 µM | 9.6 RU | –
O=C(c1cccc(Nc2ccccc2)n1)N1CC2CN(C(=O)c3cccc(-c4nc5ccccc5[nH]4)n3)CC2C1 [Embodiment L-46, (5-(6-(1H-benzo[d]imidazol-2-yl)picolinoyl)hexahydropyrrolo[3,4-c]pyrrol-2(1H)-yl)(6-(phenylamino)pyridin-2-yl)methanone] | 30.4 µM | 10.6 RU | –
O=C(c1cccc(-c2nc3ccccc3[nH]2)n1)N1CCN(C(=O)c2n[nH]c3ccccc23)CC1 [Embodiment L-110, (4-(6-(1H-benzo[d]imidazol-2-yl)picolinoyl)piperazin-1-yl)(1H-indazol-3-yl)methanone] | 26.2 µM | 15 RU | –
O=C(c1cccc(-c2nc3ccccc3[nH]2)n1)N1CCC2(CC1)CCN(C(=O)c1ccnc(Nc3ccccc3)n1)C2 [Embodiment L-62, (8-(6-(1H-benzo[d]imidazol-2-yl)picolinoyl)-2,8-diazaspiro[4.5]dec-2-yl)(2-(phenylamino)pyrimidin-4-yl)methanone] | 29.3 µM | 5.7 RU | –
O=C(c1cccc(-c2nc3ccccc3[nH]2)n1)N1CC2CN(C(=O)c3n[nH]c4ccccc34)CC2C1 [Embodiment L-120, (5-(6-(1Hbenzo[d]imidazol-2-yl)picolinoyl)hexahydropyrrolo[3,4-c]pyrrol-2(1H)-yl)(1H-indazol-3-yl)methanone] | 22.1 µM | 8.9 RU | –
O=C(c1ccnc(Nc2ccccn2)c1)N1CC2CN(C(=O)c3cccc(-c4cn5ccccc5n4)n3)CC2C1 [Embodiment L-54, (5-(6-(imidazo[1,2-a]pyridin-2-yl]picolinoyl)hexahydropyrrolo[3,4-c]pyrrol-2(1H)-yl)(2-(pyridin-2-ylamino)pyridin-4-yl)methanone] | 27.8 µM | 8.4 RU | –
O=C(c1cccc(-c2nc3ccccc3[nH]2)n1)N1CC2CC1CN2C(=O)c1ccnc(N2CCOCC2)n1 [Embodiment L-18, (5-(6-(1H-benzo[d]imidazol-2-yl)picolinoyl)-2,5-diazabicyclo[2.2.1]heptan-2-yl)(2-morpholinopyrimidin-4-yl)methanone] | 127 µM | 5.2 RU | –
O=C(NC1C2CN(C(=O)c3cccc(-c4nc5ccccc5[nH]4)n3)CC21)c1ccnc(Nc2ccccc2)n1 [Embodiment L-23, N-(3-(6-(1H-benzo[d]imidazol-2-yl)picolinoyl)-3-azabicyclo[3.1.0]hexan-6-yl)-2-(phenylamino)pyrimidine-4-carboxamide] | 10.3 µM | 7.5 RU | –
O=C(NC1CCN(C(=O)c2ccnc(Nc3ccccc3)n2)CC1)c1ccnc(Nc2ccccc2)n1 [Embodiment L-79] | 24.8 µM | 13 RU | –
O=C(c1cnc2ccccc2c1)N1CC2CN(C(=O)c3cccc(-c4nc5ccccc5[nH]4)n3)CC2C1 [Embodiment L-122, (5-(6-(1Hbenzo[d]imidazol-2-yl)picolinoyl)hexahydropyrrolo[3,4-c]pyrrol-2(1H)-yl)(quinolin-3-yl)methanone] | 10.3 µM | 7 RU | –
CN1CCC2(CC1)CCN(c1ccc(NC(=O)C3CCN(C(=O)c4cccc(-c5nc6ccccc6[nH]5)n4)C3)cc1)CC2 [Embodiment L-35, 1-(6-(1H-benzo[d]imidazol-2-yl)picolinoyl)-N-(4-(9-methyl-3,9-diazaspiro[5.5]undecan-3-yl)phenyl)pyrrolidine-3-carboxamide] | 66.1 µM | 14.4 RU | –
O=C(c1cccc(-c2nc3ccccc3[nH]2)n1)N1CCC2(CC1)CCN(C(=O)c1ccnc(Nc3ccccc3)n1)CC2 [Embodiment L-27, (9-(6-(1H-benzo[d]imidazol-2-yl)picolinoyl)-3,9-diazaspiro[5.5]undecan-3-yl)(2-(phenylamino)pyrimidin-4-yl)methanone] | 13.3 µM | 6.5 RU | –
O=C(Nc1cccc(-c2cn3ccccc3n2)c1)Nc1cccc(-c2cn3ccccc3n2)c1 [Embodiment L-119, 1,3-Bis(3-(imidazo[1,2-a]pyridin-2-yl)phenyl)urea] | 6.78 µM | 10.8 RU | –
O=C(c1ccnc(Nc2ccccc2)n1)N1CCC2(CC1)CCN(C(=O)c1ccnc(Nc3ccccc3)n1)CC2 [Embodiment L-78, (3,9-diazaspiro[5.5]undecane-3,9-diyl)bis((2-(phenylamino)pyrimidin-4-yl)methanone)] | 81.5 µM | 14.4 RU | –
O=C(c1cnc2ccccc2c1)N1CCN(C(=O)c2cccc(-c3nc4ccccc4[nH]3)n2)CC1 [Embodiment L-108, (4-(6-(1H-benzo[d]imidazol-2-yl)picolinoyl)piperazin-1-yl)(quinolin-3-yl)methanone] | 48.4 µM | 13.7 RU | –
O=C(c1ccc(-c2nc3ccccc3[nH]2)nc1)N1CCC2(CCN(C(=O)c3cccc(-c4nc5ccccc5[nH]4)n3)C2)C1 [Embodiment L-60, (7-(6-(1H-benzo[d]imidazol-2-yl)nicotinoyl)-2,7-diazaspiro[4.4]nonan-2-yl)(6-(1H-benzo[d]imidazol-2-yl)pyridin-2-yl)methanone] | 27.4 µM | 3.6 RU | –
NC(=O)c1sccc1NC(=O)c1ccc(C(=O)N2CCN(C(=O)c3cccc(-c4nc5ccccc5[nH]4)n3)CC2)cc1 [Embodiment L-115, 3-(4-(4-(6-(1H-benzo[d]imidazol-2-yl)picolinoyl)piperazine-1-carbonyl)benzamido)thiophene-2-carboxamide] | 17.7 µM | 20.8 RU | –
O=C(c1cccc(-c2nc3ccccc3[nH]2)n1)N1CCC2(CC1)CCN(C(=O)c1cccc(-c3nc4ccccc4[nH]3)n1)C2 [Embodiment L-59, (2,8-diaza[4.5]decane-2,8-diyl)bis(6-(1H-benzo[d]imidazol-2-yl)pyridin-2-yl)methanone] | 14.9 µM | 3.6 RU | –
Cc1ccc(C(=O)N2CCN(C(=O)c3cccc(-c4nc5ccccc5[nH]4)n3)CC2)cc1NC1=CC(=O)c2ccccc2C1=O [Embodiment L-116, 2-((5-(4-(6-(1H-benzo[d]imidazol-2-yl)picolinoyl)piperazine-1-carbonyl)-2-methylphenyl)amino)naphthalene-1,4-dione] | 14.8 µM | 32.5 RU | –
O=C(c1cccc(Nc2ccccc2)n1)N1CCC2(CC1)CCN(C(=O)c1ccnc(Nc3ccccc3)n1)CC2 [Embodiment L-80, (9-(6-(phenylamino)picolinoyl)-3,9-diazaspiro[5.5]undecan-3-yl)(2-(phenylamino)pyrimidin-4-yl)methanone] | 28.4 µM | 8.5 RU | –
O=C(Nc1ccccc1NC(=O)c1ccnc(N2CCOCC2)n1)c1ccnc(N2CCOCC2)n1 [Embodiment L-13, N,N′-(1,2-phenylene)bis(2-morpholinopyrimidine-4-carboxamide)] | 38.3 µM | 1.5 RU | –
Cc1ccc2cc(C(=O)N3CC4CN(C(=O)c5cccc(-c6nc7ccccc7[nH]6)n5)CC4C3)ccc2n1 [Embodiment L-125, (5-(6-(1Hbenzo[d]imidazol-2-yl)picolinoyl)hexahydropyrrolo[3,4-c]pyrrol-2(1H)-yl)(2-methylquinolin-6-yl)methanone] | 23.5 µM | 5.2 RU | –
Cc1cn(-c2cccc(C(=O)N3CCC4(CCN(C(=O)c5cccc(-c6cn7ccccc7n6)c5)CC4)CC3)c2)cn1 [Embodiment L-92, (9-(3-(imidazo[1,2-a]pyridin-2-yl)benzoyl)-3,9-diazaspiro[5.5]undecan-3-yl)(3-(4-methyl-1H-imidazol-1-yl)phenyl)methanone] | 58.8 µM | 11 RU | –
